# What was measured:
# erythrocytes [1] = experiment: Literature: distribution of FK506 in blood and RBC binding capacity; format: in vitro ADME; conditions: calculated
# [2] = 10-12 hours post-dose; cited from earlier work
# erythrocytes [3] = conditions: cited from earlier work
# human erythrocytes = experiment: Loading of recombinant FKBP12 into human erythrocytes (cell recovery, corpuscular indices); conditions: at the three tested concentrations (20, 40 and 80 μM)
# Protocol: recombinant FKBP12 was encapsulated into human erythrocytes by means of a procedure of hypotonic dialysis, isotonic resealing and “reannealing” as previously described [Magnani M 1989]. In particular, human red blood cells were obtained from fresh blood collected in heparin from healthy donors and washed with physiologic solution containing Hepes 10 mM (pH 7.4), NaCl 154 mM and Glucose 5 mM to remove leukocytes and platelets. Recovered RBC were re-suspended at 70% haematocrit in physiologic solution, the suspension aliquoted in 3 tubes and rFKBP12 added at increasing concentrations (20, 40, 80 μM/tube). Each erythrocyte suspension was dialysed in dialysis tube with 3.5 kDa cut-off for 90 minutes at 4° C. against 50 volumes of hypotonic solution 60 mOsm containing NaH2PO4 10 mM, NaHCO3 10 mM pH 7.4, glucose 20 mM, GSH 3 mM and ATP 2 mM. At the end of the dialysis step, RBC suspensions were collected and allowed to equilibrate at 37° C. for 5 minutes under gentle stirring. […] RBC corpuscolar indices MCV, Mean Corpuscular Volume, MCH, Mean Corpuscular Haemoglobin and MCHC, Mean Corpuscular Haemoglobin Concentration) were evaluated for both loaded and un-loaded cells at the end of the procedure.
# [4] = Preliminary binding studies rFKBP12-FK506 (Dot Blot); conditions: 2.5, 5, 10 μg/well protein
# Protocol: the ability of 6His-FKBP12 to bind the FK506 ligand was assessed by a slightly modified Dot Blot analysis. Briefly, 6His-FKBP12 in native conditions was dot-blotted onto a 0.2 μm nitrocellulose membrane at increasing concentrations (2.5, 5, 10 μg/well). Successively, the membrane was subjected to a single incubation step with a solution of Tacrolimus-horseradish peroxidase conjugate (PRO-Trac™ II Tacrolimus 5× Conjugate, DiaSorin, Stillwater, Minn., USA) to allow FKBP12-Tacrolimus binding.
Compound,FK506 binding capacity for native RBC (erythrocytes [1]) [μg/ml RBC 40% Ht],therapeutic window [2],binding capacity of RBC (erythrocytes [3]),fraction in blood associated with erythrocytes (erythrocytes [3]),fraction in blood associated with lymphocytes (erythrocytes [3]) [%],fraction in blood associated with plasma (erythrocytes [3]) [%],haemolytic effect (human erythrocytes),ability to bind the FK506 ligand [4]
"C=CC[C@@H]1/C=C(\C)C[C@H](C)C[C@H](OC)[C@H]2O[C@@](O)(C(=O)C(=O)N3CCCC[C@H]3C(=O)O[C@H](/C(C)=C/[C@@H]3CC[C@@H](O)[C@H](OC)C3)[C@H](C)[C@@H](O)CC1=O)[C@H](C)C[C@@H]2OC (relative stereo) [FK506, 3S-[3R*[E(1S*,3S*,4S*)],4S*,5R*,8S*,9E,12R*,14R*,15S*,-16R*,18S*, 19S*,26aR*]]-5,6,8,11,12,13,14,15,16,17,18,19,24,25,26,26a-hexadecahydro-5,19-dihydroxy-3-[2-(4-hydroxy-3-methoxycyclohexyl)-1-methylethenyl]-14,16-dimethoxy-4,10,12,18-tetramethyl-8-(2-propenyl)-15,19-epoxy-3H-pyrido[2,1-c][1,4]oxaazacyclotricosine-1,7,20,21(4H,23H)-tetrone mono-hydrate]",0.4,5-20 ng/ml whole blood,around 440 ng/ml of blood,about 85%,0.46,14,,
recombinant FKBP12: N-terminal His-tagged recombinant form of human 12-kDa FK506 Binding Protein expressed in E. coli BL21(DE3),,,,,,,does not appear haemolytic,able to bind Tacrolimus in a specific and dose-dependent manner
